{"source": "paper PMC3299860", "about": "(Antiviral Research, 2012)", "key": {"A/Fukui/20/2004 (H3N2)": {"system": "A/Fukui/20/2004 (H3N2)", "assay_type": "biochemical, human influenza virus"}, "[1]": {"system": "A/New Jersey/15/2007 (H1N1)", "assay_type": "biochemical, human influenza virus"}}, "note": "Entries after “also recorded” stand apart in the source; their conditions may differ.", "data": [{"molecule": "CC(=O)N[C@H]1[C@H]([C@H](O)[C@H](O)CO)OC(C(=O)O)=C[C@@H]1N=C(N)N", "note": "[zanamivir, 4-guanidino-Neu5Ac2en]", "values": [{"measurement": "susceptibility to NAI (in words)", "setting": "A/Fukui/20/2004 (H3N2)", "value": "susceptible"}, {"measurement": "susceptibility to NAI (in words)", "setting": "[1]", "value": "zanamivir-sensitive; also recorded: susceptible"}]}]}
